Tests used:
Factor XIa = Factor XIa (Homo sapiens (Human), UniProt P03951); assay: Factor XIa enzyme inhibition assay (dose response, fluorogenic AMC substrate); assay type: biochemical; conditions: read-out: hFXIa IC50
Method in brief: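 Human FXIa at 0.25 nM final with 50 μM final PyroGlu-Pro-Arg-AMC in 20 mM Hepes pH 7.4, 150 mM NaCl, 0.02% Tween 20. Two-fold serial compound dilutions; fluorescence read every minute for 30 min at 30° C. IC50 from a four-parameter Hill fit.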

Thrombin = Thrombin (Homo sapiens (Human), UniProt P00734); assay: Dose response assay for protease inhibitors: thrombin; assay type: biochemical; conditions: selectivity, thrombin over Factor XIa
Method in brief: (§1)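 Fluorogenic AMC-peptide cleavage in 20 mM Hepes pH 7.4, 150 mM NaCl, 0.02% Tween 20; 100 μM stock substrate dilution (Glp-Pro-Arg-AMC for thrombin/trypsin; Pro-Phe-Arg-AMC or Boc-Leu-Gly-Arg-AMC for Factor Xa). Enzyme diluted to 0.5 nM, added last to two-fold compound series; kinetic read at 30° C, 30 min (Factor Xa 60 min); IC50 fitted.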

Trypsin = assay: Dose response assay for protease inhibitors: trypsin; assay type: biochemical; conditions: selectivity, trypsin over Factor XIa
Method in brief: as §1

Factor Xa = Factor Xa (Homo sapiens (Human), UniProt P00742); assay: Dose response assay for protease inhibitors: Factor Xa; assay type: biochemical; conditions: selectivity, Factor Xa over Factor XIa
Method in brief: as §1

[1] = Caco-2 cell permeability assay; assay type: in vitro ADME, human; conditions: human, 37° C.; for Papp A→B at 60 min, 10 μM: Caco-2, apical to basolateral; for Papp B→A at 40 min, 10 μM: Caco-2, basolateral to apical
Procedure: (§2) The following procedure was used to determine the ability of a test compound to cross Caco-2 cells (human intestinal epithelial cells derived from a colorectal adenocarcinoma). The cells were seeded at 1×10^5 cells/cm^2 in 96-well Multiscreen™ plates (Millipore). Permeability assays were performed with the cells at days 21-25 post-seeding. Cells are typically used for 15 consecutive passages in culture.
(§3) This assay can be performed in either the apical to basolateral (A-B) or basolateral to apical (B-A) direction. The test compound was prepared at 10 μM in HBSS-MES (pH 6.5) or HBSS-HEPES (pH 7.4) with a final DMSO concentration of 1%. The working solution was then centrifuged and the supernatant added to the donor side. The assay plate was incubated at 37° C. with gentle shaking for 60 min or 40 min for the A-B or B-A assay, respectively. Samples were aliquoted from the donor side at time zero and the end point, and from the receiver side at the end point.
(§4) Reference compounds, propranolol (highly permeable), labetalol (moderately permeable), ranitidine (poorly permeable), and colchicine (P-glycoprotein substrate) were included in each assay.
(§5) Samples are analyzed by HPLC-MS/MS using selected reaction monitoring. The HPLC system consists of a binary LC pump with autosampler, a C-18 column, and a gradient.
(§6) The apparent permeability coefficient (Papp) of the test compound (Equation 2) and its recovery (Equation 3) are calculated as follows:
(§7) [formula] wherein A is the surface area of the cell monolayer (0.11 cm^2), C is concentration of the test compound expressed as peak area, D denotes donor, and R is receiver. “0”, “mid,” and “end” denote time at zero, mid-point, and end of the incubation, respectively. Δt is the incubation time. V is the volume of the donor or receiver.
(§8) This is most likely due to non-specific binding or degradation.

[2] = Metabolic stability in dog hepatocytes; assay type: in vitro ADME; conditions: pooled cryopreserved hepatocytes; beagle dog hepatocytes, 2 μM compound; read-out: Dog Hepatocyte Stability (t1/2)
Procedure: The following procedure was used to determine the stability of test compounds in beagle dog hepatocytes in a 96-well plate format. The test compounds, including the controls, imipramine and 7-ethoxycoumarin, were dissolved at 10 mM in DMSO, followed by further 5-fold dilution with DMSO to 2 mM. Pooled cryopreserved beagle dog hepatocytes were thawed and transferred into complete medium. Cells were gently centrifuged (700 rpm for 5 min) and the pellet rinsed with KHB (Krebs Henseleit buffer). Cells were resuspended, counted using Trypan blue, and adjusted to 1 million cells/mL in KHB buffer. The 2 mM compound stock solutions were diluted 10-fold with acetonitrile, followed by a further 50-fold dilution with KHB buffer. 200 μL of these compound solutions were transferred to 96-well polypropylene assay plates and an equal volume of the hepatocyte solution was added and mixed to initiate the reaction (final assay concentrations were 2 μM compound and 500,000 cells/mL). Assay plates were incubated at 37° C. in 5% CO2 with gentle agitation. 50 μL aliquots were removed at multiple time points out to 180 minutes and quenched with 6 volumes of cold acetonitrile (containing 250 ng/mL of carbutamide and chrysin as internal standards) to terminate the reaction and precipitate protein. Quenched samples were maintained on ice. The quenched samples were centrifuged at 2000×g (3100 rpm) for 10 minutes at 4° C. 50 μL aliquots of the supernatants were removed and diluted with 100 μL Milli-Q water to reduce the % organic content prior to bioanalysis by LC-MS/MS. Peak areas corresponding to the test compound were recorded. The compound remaining was calculated by comparing the peak area at each time point to time zero. Data were analyzed and results were calculated using Microsoft Excel 2010.

[3] = Aqueous solubility in PBS by HPLC-UV/VIS; assay type: physicochemical; conditions: PBS pH 7.4, 2% DMSO, 24 h at room temperature
Procedure: The following procedure was used to determine the aqueous solubility of a test compound in phosphate buffered saline (PBS-NaCl 137 mM, KCl 2.7 mM, Na2HPO4 8.1 mM, KH2PO4 1.5 mM, pH 7.4) in 96-well plate format by HPLC-UV/VIS analysis. The test compound was prepared at 200 μM in PBS from a 10 mM DMSO stock solution. The final DMSO concentration was 2%. The PBS buffer samples were mixed thoroughly followed by incubation at room temperature for 24 h. At the end of the incubation, the PBS buffer samples were centrifuged and supernatants analyzed by HPLC. The aqueous solubility (μM) of the test compound in PBS was determined by comparing the peak area of the principal peak in the calibration standard (200 μM) with the peak area of the corresponding peak in each of the PBS samples. The range of the assay was approximately 0.5 μM to 200 μM. The reference compounds used in each assay were metoprolol, rifampicin, ketoconazole, phenytoin, haloperidol, simvastatin, diethylstilbestrol, and tamoxifen ranking from fully soluble (200 μM) to poorly soluble (<1 μM).

[4] = Plasma protein binding by equilibrium dialysis; assay type: in vitro ADME; conditions: both sexes, pH 7.4, pooled human plasma, 4 hours at 37° C., read-out: PPB (%)
Procedure: (§9) The following procedure was used to determine the plasma protein binding of a test compound in pooled plasma from human (mixed gender) via equilibrium dialysis in a 96-well plate format. The dialysate compartment was loaded with phosphate-buffered saline (pH 7.4) and the sample side was loaded with plasma spiked with the test compound at a concentration of 10 μM. After loading, samples were covered and incubated for 4 hours at 37° C. After incubation, each compartment was sampled, diluted with acetonitrile/buffer and centrifuged. The supernatants were analyzed by HPLC-MS/MS. The analyte peak areas obtained from HPLC-MS/MS analysis of each sample were used to calculate protein binding according to the following equation (Equation 4):
(§10) [formula] where: AREAp=Peak area of analyte in protein matrix; AREAb=Peak area of analyte in buffer.
(§11) The amount measured in the plasma compartment included both free and bound drug, while that on the buffer side represented free drug only; the differences were used to calculate the percentage plasma protein bound. Three reference compounds were tested in each assay: acebutolol, quinidine and warfarin.

Caco-2 cells = assay: Caco-2 cell permeability assay; assay type: in vitro ADME, human; conditions: Papp, 10 μM, 37° C.
Procedure: as §2, §3, §4, §5, §6, §7, §8

human plasma protein = assay: Plasma protein binding by equilibrium dialysis; assay type: in vitro ADME; conditions: pooled human plasma, 10 μM, 4 hours at 37° C.
Procedure: as §9, §10, §11

Sequence of Factor Xa (P00742 235-488): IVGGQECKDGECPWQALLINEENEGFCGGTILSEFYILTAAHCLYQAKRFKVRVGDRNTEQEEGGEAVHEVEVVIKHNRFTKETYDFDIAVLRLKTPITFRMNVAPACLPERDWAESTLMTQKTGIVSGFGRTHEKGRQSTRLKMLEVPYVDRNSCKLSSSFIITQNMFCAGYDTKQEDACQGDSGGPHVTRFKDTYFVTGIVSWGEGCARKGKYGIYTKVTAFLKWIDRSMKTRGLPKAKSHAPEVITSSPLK
Sequence of Factor Xa (P00742 41-179 partner): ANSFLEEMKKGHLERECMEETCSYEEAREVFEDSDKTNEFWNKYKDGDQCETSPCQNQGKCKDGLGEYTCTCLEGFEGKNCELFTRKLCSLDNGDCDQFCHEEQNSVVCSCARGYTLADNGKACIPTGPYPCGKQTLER
Sequence of Factor XIa (P03951 388-625): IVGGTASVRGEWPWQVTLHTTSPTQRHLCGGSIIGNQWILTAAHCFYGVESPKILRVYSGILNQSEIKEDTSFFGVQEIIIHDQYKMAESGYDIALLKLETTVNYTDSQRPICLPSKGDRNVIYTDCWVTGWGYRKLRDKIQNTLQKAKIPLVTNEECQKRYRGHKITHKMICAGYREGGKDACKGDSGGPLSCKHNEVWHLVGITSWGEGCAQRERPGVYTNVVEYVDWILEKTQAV
Sequence of Factor XIa (P03951 19-387 partner): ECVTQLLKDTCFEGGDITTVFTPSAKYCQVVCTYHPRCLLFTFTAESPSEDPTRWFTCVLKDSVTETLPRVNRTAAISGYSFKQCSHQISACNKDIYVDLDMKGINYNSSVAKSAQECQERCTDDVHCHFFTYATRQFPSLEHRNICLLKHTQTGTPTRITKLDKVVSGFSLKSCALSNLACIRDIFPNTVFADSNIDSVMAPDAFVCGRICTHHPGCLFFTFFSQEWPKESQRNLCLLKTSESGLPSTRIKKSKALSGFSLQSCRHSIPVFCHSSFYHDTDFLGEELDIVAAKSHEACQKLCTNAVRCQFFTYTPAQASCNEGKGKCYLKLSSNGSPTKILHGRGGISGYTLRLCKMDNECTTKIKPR

Row | Compound | IC50 (Factor XIa) [nM] | Ratio: Thrombin/FXIa (Thrombin) | Ratio: Trypsin/FXIa (Trypsin) | Ratio: FXa/FXIa (Factor Xa) | Papp A→B at 60 min, 10 μM [1] [×10⁻⁶ cm/s] | Papp B→A at 40 min, 10 μM [1] [×10⁻⁶ cm/s] | half-life at 2 μM [2] [h] | solubility at 24 h ([3]; phosphate buffered saline, aqueous buffer, kinetic from dmso stock) [µM] | fraction unbound at 4 h, 10 μM [4] | Caco-2 Permeability (A-B) (Caco-2 cells; apical to basolateral, 60 min) | Caco-2 Permeability (B-A) (Caco-2 cells; basolateral to apical, 40 min) | Aqueous Solubility (uM, in PBS) [3] | PPB (%) (human plasma protein)
1 | CC[C@@H](NC(=O)N1C(=O)[C@H](Cc2ccnc(N)c2)[C@H]1C(=O)N(C)c1ccsc1)c1ccccc1 [Compound 1-9, (2S,3R)-3-((2-aminopyridin-4-yl)methyl)-N2-(thiophen-3-yl)-N1-((R)-1-phenylpropyl)-N2-methyl-4-oxoazetidine-1,2-dicarboxamide] | < 10 | H (“H” indicates 101-1000) | G (“G” indicates 1-100) | H (“H” indicates 101-1000) | 11 to 30 | 11 to 30 |  |  |  |  |  |  | 
2 | CC[C@@H](NC(=O)N1C(=O)[C@H](Cc2ccnc(N)c2)[C@H]1C(=O)N(C)c1cnn(C)c1)c1cccc(Cl)c1 [Compound 1-11, (2S,3R)-3-((2-aminopyridin-4-yl)methyl)-N2-(1-methyl-1H-pyrazol-4-yl)-N1-((R)-1-(3-chlorophenyl)propyl)-N2-methyl-4-oxoazetidine-1,2-dicarboxamide] | < 10 | H (“H” indicates 101-1000) | G (“G” indicates 1-100) | H (“H” indicates 101-1000) | < 10 | 11 to 30 |  |  |  |  |  |  | 
3 | CC[C@@H](NC(=O)N1C(=O)[C@H](Cc2cc(C)nc(N)c2)[C@H]1C(=O)N(C)c1ccn(C)n1)c1ccccc1 [Compound 1-48, (2S,3R)-3-((2-amino-6-methylpyridin-4-yl)methyl)-N2-(1-methyl-1H-pyrazol-3-yl)-N1-((R)-1-phenylpropyl)-N2-methyl-4-oxoazetidine-1,2-dicarboxamide] | < 10 | H (“H” indicates 101-1000) | G (“G” indicates 1-100) | I (“I” indicates > 500) |  |  | > 4 |  |  |  |  |  | 
4 | CC[C@@H](NC(=O)N1C(=O)[C@H](Cc2ccnc(N)c2)[C@H]1C(=O)N(C)c1nccn1C)c1cc(F)ccc1F [Compound 1-84, (2S,3R)-3-((2-aminopyridin-4-yl)methyl)-N2-(1-methyl-1H-imidazol-2-yl)-N1-((R)-1-(2,5-difluorophenyl)propyl)-N2-methyl-4-oxoazetidine-1,2-dicarboxamide] | < 10 | H (“H” indicates 101-1000) | G (“G” indicates 1-100) | I (“I” indicates > 500) | < 10 | 11 to 30 |  | > 100 | 0.1 to 0.5 |  |  |  | 
5 | CC[C@@H](NC(=O)N1C(=O)[C@H](Cc2ccnc(N)c2)[C@H]1C(=O)N(C)c1ccnn1C)c1ccc(F)c(C)c1F [Compound 1-200] | < 10 | I (“I” indicates > 500) | H (“H” indicates 101-1000) | I (“I” indicates > 500) |  |  |  |  |  |  |  |  | 
6 | (2S,3R)-3-((2-aminopyridin-4-yl)methyl)-N2-(1-methyl-1H-imidazol-2-yl)-N1-((R)-1-(3-fluorophenyl)propyl)-N2-methyl-4-oxoazetidine-1,2-dicarboxamide [Compound 1-79] | < 10 | H (“H” indicates 101-1000) | G (“G” indicates 1-100) | I (“I” indicates > 500) |  |  |  |  |  | P (“P” indicates < 10 × 10^−6 cm/s) | Q (“Q” indicates 11-30 × 10^−6 cm/s) | W (“W” indicates > 100 μM) | Z (“Z” indicates 50-90%)
7 | (2S,3R)-3-((2-aminopyridin-4-yl)methyl)-N2-(1-methyl-1H-imidazol-4-yl)-N1-((R)-1-cyclohexyl-2,2,2-trifluoroethyl)-N2-methyl-4-oxoazetidine-1,2-dicarboxamide [Compound 1-70] | < 10 | G (“G” indicates 1-100) | G (“G” indicates 1-100) | I (“I” indicates > 500) |  |  |  |  |  |  |  |  | 
8 | (2S,3R)-3-((2-aminopyridin-4-yl)methyl)-N2-(1-methyl-1H-pyrazol-3-yl)-N1-((S)-1-(3-chlorophenyl)ethyl)-N2-methyl-4-oxoazetidine-1,2-dicarboxamide [Compound 1-33] | < 10 | H (“H” indicates 101-1000) | G (“G” indicates 1-100) | H (“H” indicates 101-1000) |  |  |  |  |  |  |  |  | 
